Consider 3 compounds from US4474806A, “Sulfonyl or carbonyl inositol derivatives useful as anti-inflammatory/analgesic agents” (Merck & Co., Inc., priority 1982, dated 1984).

The test system of one assay is phospholipase C. Conditions: background statement, no concentration given; cited from earlier work.
Assay [1] concerns Phosphatidyl inositol-specific phospholipase C. Put plainly: Phosphatidyl inositol-specific phospholipase C assay with sonicated human platelets, release of water-soluble 3H-inositol counts. Type of assay: biochemical. The following applies: 250 μm PI, 10 minutes. As for the experimental part: This invention also relates to a method of treating inflammation in patients using a compound of Formula (I) as the active constituent.
A. Protocol - Phosphatidyl inositol-specific
phospholipase C assays. The assays were performed as
follows: A mixture of PI (Sigma) and
(^3 H--inositol)-PI in CHCl3 are blown to dryness
under N2 and sonicated into a buffer containing DOC
and CaCl2 so that the final concentrations in each
0.5 mg/ml DOC containing an appropriate amount of
in 50 mM Hepes, 100 mM NaCl, 0.5 mg/ml BSA pH 7.
An aliquot of sonicated human platelets,
5 × 10^9 /ml, is added; the reaction is stopped after
10 minutes with a chloroform/methanol/H2 O solution
and the upper water phase is counted to detect
water-soluble inositol counts. The pH was checked
during each assay using pH paper to verify that none
of the compounds affected this parameter.

Regarding `c1ccc2c(c1)Nc1ccccc1S2` [phenothiazine], the “inhibition of phospholipase C” value with phospholipase C is on record as “inhibited”. Take `CCCCCCCCCCCCCCCC(=O)OC1C(O)C(O)C(O)C(O)C1O` (stereo not shown) [myo-inositol-5 (or 6)-palmitate]: the “% Inhibition (specific phospholipase C inhibition)” value in assay [1] (Conc. 0.122 mM) stood at 7%; in assay [1] (Conc. 1.22 mM) it was 55%.

Turning to `CCCCCCCCCCCCNC(=O)OC1C(O)C(O)C(O)C(O)C1O` (stereo not shown) [myo-inositol-6 (or 5)-dodecanecarbamate], the “% Inhibition (specific phospholipase C inhibition)” value in assay [1] (Conc. 0.8 mM) is on record as 16%.
